Experimental data published in patent US12285403B2, “A2-73 as a therapeutic for insomnia, anxiety and agitation” (Anavex Life Sciences Corp., priority 2016, dated 2025).

Legend:
Format in all cases: in vivo, human
[1] = system: mild-to-moderate AD patients; experiment: Hamilton Depression Rating Scale (HAM-D), open-label Phase 2a clinical trial; settings: for Insomnia HAM-D Q5 Middle Insomnia, Mean ± SD / Insomnia HAM-D Q6 Late Insomnia, Mean ± SD / Insomnia HAM-D Q4 Initial Insomnia, Mean ± SD: score 0-2; for Insomnia HAM-D Q5 Middle Insomnia, Mean ± SD: baseline 1.5 ± 0.7; for Insomnia HAM-D Q6 Late Insomnia, Mean ± SD: baseline 1.6 ± 0.5; for Insomnia HAM-D Q4 Initial Insomnia, Mean ± SD: baseline 2 ± 0.0
Method: Efficacy data is presented through 31 week from the randomized (into different treatment regimens) open-label study with ANAVEX 2-73 oral daily dosing ranging from 10 mg to 50 mg. The data establish a method for treating insomnia, anxiety, or agitation in a subject. Efficacy extends to daily doses of up to about 100 mg of […], A1-41 or A19-144. Note is made of doses of A2-73, A1-41 or A19-144 of about 10 mg to about 30 mg, about 20 mg to about 40 mg, about 50 mg to about 80 mg. Oral dosing daily or every other day is contemplated.
This is consistent with Table 1 showing a reduction in insomnia, anxiety, and other symptoms.
The data of Table 1 is from an open-label, clinical trial, performed on a group of 30 mild-to-moderate AD patients (MMSE range 16-23, 40% female) on donepezil treatment, with ANAVEX 2-73.

[2] = system: mild-to-moderate Alzheimer's disease patients; experiment: MMSE (Mini-Mental State Examination), Phase 2a study; settings: over 31 weeks; for MMSE scores: oral daily 10 mg to 50 mg, FIG. 1
Source text: (§1) Although the present invention calls for methods of treating insomnia, some primary sleep disorders, such as circadian rhythm disorders, advanced sleep phase disorder also termed sleep onset insomnia, mid-nocturnal insomnia, early morning insomnia, hyper insomnia, trouble staying asleep, jet lag, narcolepsy, non-24-hour sleep-wake syndrome, include insomnia as a component of the disorder. Thus, the term “insomnia” should be understood to also include the insomnia component of these disorders. • Aβ—Amyloid beta is abbreviated as Aβ. • AD—Alzheimer's disease is abbreviated as AD. • ADCS-ADL—Alzheimer's Disease Cooperative Study Activities of Daily Living Inventory is abbreviated as ADCS-ADL. • Cogstate tasks—Cogstate tasks refers to Cogstate cognitive tests (Cogstate Alzheimer's Battery) using visual and verbal stimuli to ensure assessment. These tests assess cognitive function in adults with mild cognitive impairment and clinically-diagnosed Alzheimer's disease. The test is culture-neutral and not limited by a subject or participant's level of education. A Cogstate battery comprises a number of individual tests—each designed to test a specific area of cognition. When a number of these individual tests are put together to form a test battery, a more complete picture of a person's cognitive state can be defined. • DPZ—Donepezil is abbreviated as DPZ. • EEG/ERP—EEG/ERP is a reference to ERP measured via EEG. • ERP—Event-related potential is abbreviated as ERP. • HAM-D—Hamilton Depression Rating Scale is abbreviated as HAM-D. • MCI—Mild cognitive impairment is abbreviated as MCI. • MMSE—MMSE refers to the Mini-Mental State Examination (MMSE) or Folstein test. This test is a 30-point questionnaire that is used extensively in clinical and research settings to measure cognitive impairment. • SWS—Slow-wave sleep is abbreviated as SWS. • WASO.—Waking after sleep onset is abbreviated WASO.
(§2) Efficacy data is presented through 31 week from the randomized (into different treatment regimens) open-label study with ANAVEX 2-73 oral daily dosing ranging from 10 mg to 50 mg. […]

[3] = system: mild-to-moderate Alzheimer's disease patients; experiment: ADCS-ADL (Activities of Daily Living), Phase 2a study; settings: for ADCS-ADL scores: through week 31, oral daily 10 mg to 50 mg, FIG. 2
Source text: as §1, §2

[4] = 30 mild-to-moderate AD patients on donepezil, open-label
[5] = 30 mild-to-moderate AD patients on donepezil, open-label, total 28 improvements
[6] = listed as ANAVEX 2-73, hydrochloride

In the case of `CN(C)CC1CCOC1(c1ccccc1)c1ccccc1.Cl` (stereo not shown) [A2-73, tetrahydro-N,N-dimethyl-2,2-diphenyl-3-furanmethanamine hydrochloride], the “Scored Improvement Count, improved item of HAM-D: Agitation” value [1, 4] is reported as 4, the “Scored Improvement Count, improved item of HAM-D: Anxiety (psychic and somatic)” value [1, 4] is reported as 5 and the “Scored Improvement Count, improved item of HAM-D: Depressed” value [1, 4] is reported as 4. For the same molecule, the “Scored Improvement Count, improved item of HAM-D: Guilt” value [1, 4] was 1, the “Scored Improvement Count, improved item of HAM-D: Hypochondriasis” value [1, 4] was 2 and the “Scored Improvement Count, improved item of HAM-D: Insight” value [1, 4] was 3. For the same molecule, the “Scored Improvement Count, improved item of HAM-D: Insomnia” value [1, 4] was 8, the “Scored Improvement Count, improved item of HAM-D: Loss of libido or other genital symptoms” value [1, 4] was 2 and the “Scored Improvement Count, improved item of HAM-D: Work and activities” value [1, 4] was 6. For the same molecule, the “Scored Improvement in [%], improved item of HAM-D: Agitation” value [1, 5] was 14%, the “Scored Improvement in [%], improved item of HAM-D: Anxiety (psychic and somatic)” value [1, 5] was 18% and the “Scored Improvement in [%], improved item of HAM-D: Depressed” value [1, 5] was 14%. The “Scored Improvement in [%], improved item of HAM-D: Guilt” value [1, 5] was 4%, the “Scored Improvement in [%], improved item of HAM-D: Hypochondriasis” value [1, 5] was 7% and the “Scored Improvement in [%], improved item of HAM-D: Insight” value [1, 5] was 11%. The “Scored Improvement in [%], improved item of HAM-D: Insomnia” value [1, 5] was 29%, the “Scored Improvement in [%], improved item of HAM-D: Loss of libido or other genital symptoms” value [1, 5] was 7% and the “Scored Improvement in [%], improved item of HAM-D: Work and activities” value [1, 5] was 21%. For the same molecule, the “Insomnia HAM-D Q5 Middle Insomnia, Mean ± SD” value ([1]; Day 13) was 1.0 ± 1.4, the “Insomnia HAM-D Q6 Late Insomnia, Mean ± SD” value ([1]; Day 13) was 0.0 ± 0.0 and the “Insomnia HAM-D Q4 Initial Insomnia, Mean ± SD” value ([1]; Day 13) was 2 ± 0.0. For the same molecule, the “Insomnia HAM-D Q5 Middle Insomnia, Mean ± SD” value ([1]; Week 12/26) was 0.0 ± 0.0, the “Insomnia HAM-D Q6 Late Insomnia, Mean ± SD” value ([1]; Week 12/26) was 0.0 ± 0.0 and the “Insomnia HAM-D Q4 Initial Insomnia, Mean ± SD” value ([1]; Week 12/26) was 0.0 ± 0.0. The “Overall Hamilton Depression Rating Scale (HAM-D)” value ([1]; after 31 weeks of dosing, FIG. 7) was “reduction”, the “Changes in other behavioral items (HAM-D)” value ([1]; baseline to week 12) was “not statistically significant” and the “Subjective reports of insomnia (sleep items of HAM-D)” value ([1]; baseline to week 12, t=4.2, p<0.05, 30 AD patients, listed as ANAVEX 2-73, hydrochloride) was “marked insomnia improvements”. For the same molecule, the “Scored Improvement Count, improved items of HAM-D: Total” value ([1]; sum over all improved HAM-D items) was 28, the MMSE scores ([2]; hydrochloride) was “maintained at the same level” and the MMSE scores [2, 6] was “preserves average MMSE and ADCS-ADL scores”. The “MMSE score, ANAVEX 2-73 alone vs ANAVEX 2-73 with DPZ (donepezil)” value ([2]; exploratory analysis, FIG. 5) was “no notable difference”, the “ADCS-ADL score, ANAVEX 2-73 alone vs ANAVEX 2-73 with DPZ (donepezil)” value ([3]; over 31 weeks, exploratory analysis, FIG. 6) was “no notable difference” and the ADCS-ADL scores ([3]; hydrochloride) was “maintained at a constant level”. For the same molecule, the ADCS-ADL scores [3, 6] was “preserves average MMSE and ADCS-ADL scores”.
